The text below walks through data of patent US10774080B2, “Pyrimidine compound as JAK kinase inhibitor” (THERAVANCE BIOPHARMA R&D IP, LLC, priority 2017, dated 2020).

One data set addresses T1, JAK3 (Homo sapiens, UniProt P52333).
T1 construct: GST; purchased Life Technologies
T1 sequence (P52333 1-1124): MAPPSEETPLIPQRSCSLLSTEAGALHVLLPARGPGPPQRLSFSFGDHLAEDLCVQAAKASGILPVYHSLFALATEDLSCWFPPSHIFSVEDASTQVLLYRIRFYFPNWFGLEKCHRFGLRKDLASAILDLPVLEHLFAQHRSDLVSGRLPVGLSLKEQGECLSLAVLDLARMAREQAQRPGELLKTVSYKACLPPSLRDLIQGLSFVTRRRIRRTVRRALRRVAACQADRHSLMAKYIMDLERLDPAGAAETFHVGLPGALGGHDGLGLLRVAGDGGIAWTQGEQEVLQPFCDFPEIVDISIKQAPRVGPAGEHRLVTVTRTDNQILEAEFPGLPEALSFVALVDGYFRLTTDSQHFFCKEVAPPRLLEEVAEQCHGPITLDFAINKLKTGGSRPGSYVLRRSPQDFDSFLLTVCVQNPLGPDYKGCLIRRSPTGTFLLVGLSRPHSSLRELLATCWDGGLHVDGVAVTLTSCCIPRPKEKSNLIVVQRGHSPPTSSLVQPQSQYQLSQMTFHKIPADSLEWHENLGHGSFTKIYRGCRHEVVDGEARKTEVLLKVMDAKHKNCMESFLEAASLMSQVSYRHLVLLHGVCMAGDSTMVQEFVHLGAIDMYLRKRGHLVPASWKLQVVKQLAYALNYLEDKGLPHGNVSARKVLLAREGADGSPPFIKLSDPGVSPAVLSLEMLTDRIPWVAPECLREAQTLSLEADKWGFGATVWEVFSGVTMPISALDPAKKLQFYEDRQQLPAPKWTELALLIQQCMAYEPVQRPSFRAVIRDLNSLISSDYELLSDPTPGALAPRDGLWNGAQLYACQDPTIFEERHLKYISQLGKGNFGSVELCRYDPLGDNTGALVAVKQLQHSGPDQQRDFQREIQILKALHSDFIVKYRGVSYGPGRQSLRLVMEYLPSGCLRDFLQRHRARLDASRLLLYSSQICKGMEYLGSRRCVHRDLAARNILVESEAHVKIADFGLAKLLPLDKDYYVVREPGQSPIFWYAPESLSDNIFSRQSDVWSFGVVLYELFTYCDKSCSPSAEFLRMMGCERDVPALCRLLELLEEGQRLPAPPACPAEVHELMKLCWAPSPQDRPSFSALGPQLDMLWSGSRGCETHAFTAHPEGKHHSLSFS
The data set can be described thus: Biochemical JAK kinase assay (LanthaScreen), JAK3. The note with it: converted from pIC50 by Cheng-Prusoff; ATP at Km 1.6 μM; read-out: JAK 3 (pKi) (converted). The method, then: Assay 1: Biochemical JAK and Tyk2 Kinase Assays A panel of four LanthaScreen JAK biochemical assays (JAK1, 2, 3 and Tyk2) were carried in a common kinase reaction buffer (50 mM HEPES, pH 7.5, 0.01% Brij-35, 10 mM MgCl2, and 1 mM EGTA). Recombinant GST-tagged JAK enzymes and a GFP-tagged STAT1 peptide substrate were obtained from Life Technologies. Serially or discretely diluted compounds were pre-incubated with each of the four JAK enzymes and the substrate in white 384-well microplates (Corning) at ambient temperature for 1 h. ATP was subsequently added to initiate the kinase reactions in 10 μL total volume, with 1% DMSO. […] The plates were allowed to incubate at ambient temperature for 1 h before being read on the EnVision reader (Perkin Elmer). Emission ratio signals (520 nm/495 nm) were recorded and utilized to calculate the percent inhibition values based on DMSO and background controls. For dose-response analysis, percent inhibition data were plotted vs. compound concentrations, and IC50 values were determined from a 4-parameter robust fit model with the Prism software (GraphPad Software). Results were expressed as pIC50 (negative logarithm of IC50) and subsequently converted to pKi (negative logarithm of dissociation constant, Ki) using the Cheng-Prusoff equation.
A general note: TR-FRET usually uses a lanthanide donor and a delayed reading to cut background.

Data set [1] deals with IL-31-induced production of pSTAT3 in mouse skin. The data set can be described thus: Assay 9: in vivo IL-31-pSTAT3 JAK target engagement in mice. Further details: species or system Balb/c mice. Conditions: topical ointment 25 μl/cm^2, 30 minutes before intradermal IL-31, biopsy one hour after IL-31. The text has this:
Assay 9: In Vivo IL-31-pSTAT3 JAK Target Engagement Assay in Mice
An in vivo model of IL-31-induced production of phosphorylated signal transducer and activator of transcription 3 (pSTAT3) in mice was used to assess local target engagement on mouse skin.
The JAK/STAT (janus kinase/signal transducer and activator of transcription) signaling pathway is a key element in the communication between immune cells and is mainly activated through cytokine receptors. Binding of cytokine IL-31 leads to the activation and phosphorylation of JAK1/JAK2 tyrosine kinases which in turn leads to the phosphorylation of STAT3 (pSTAT3). The activated STAT then translocates into the nucleus and directly regulates the transcription of cytokine-sensitive genes. In these studies, Balb/c mice were dosed with an ointment formulation of compound (I). Ointment vehicle (Table 9) or compound (I) formulated in the ointment vehicle was applied topically to shaved skin (25 μl/cm^2) 30 minutes before the intradermal injection (50 μl/1×1 cm2 site) of IL-31 (1 μg/ml) at a 1×1 cm^2 shaved area of skin on the back between the ears. One hour after IL-31, skin biopsies were collected. The tissue samples were flash frozen and analyzed for pSTAT3 by ELISA and compound concentration. Compound (I) inhibited pSTAT3 production by 80% and the skin tissue concentration of compound (I) was 62 μM.

Data set [2] in a line: Assay 8: human skin permeability assay (MedFlux-HT flow-through diffusion cell). The data set is classed as in vitro ADME. Conditions: 0.5% Ointment. Here is the method:
Assay 8: Human Skin Permeability Assay The objective of this experiment was to assess the percutaneous absorption of test compounds through human skin following topical application. The model uses excised human skin mounted in specially designed diffusion chambers (static or flow-through) that allow the skin to be maintained at a temperature and humidity that match real use conditions. The formulation was applied to the surface of the skin and the penetration of the drug is measured by monitoring its rate of appearance in the receptor solution flowing underneath the skin samples. This in vitro system allows carefully control of many of the potential variables involved in topical application, such as dosing volumes, humidity, temperature, drug stability, and skin thickness. […] This system was developed to specifically minimize the dosing area during in vitro experiments, thus allowing more dosing replications within the limited surface area of ex vivo human skin. The diffusion cells were placed in cell warming supports and heated using a circulating water bath in order to maintain the skin surface temperature at approx. 32° C. The cells were connected to multi-channel peristaltic pumps and maintained at a flow-rate of approximately 10 μL/min (600 μL/hr) for a continuous flow of receiver fluid directly under the skin. Following continuous sampling over 24 h, samples were assayed for test compound levels by LC-MS/MS. The test compound was detected in receiver fluid from […] following application of test ointment formulation (n=5). The ointment used is disclosed in Assay 7. The receiver fluid was PBS with 0.1% Brij.

Structures are written as SMILES.

Turning to `CCS(=O)(=O)N1[C@@H]2CCC[C@H]1C[C@H](N(C)c1nc(CO)c(F)c(Nc3cc(C)[nH]n3)n1)C2` [Compound (I), (2-(((1R,3s,5S)-9-(ethylsulfonyl)-9-azabicyclo[3.3.1]nonan-3-yl)(methyl)amino)-5-fluoro-6-((5-methyl-1H-pyrazol-3-yl)amino)pyrimidin-4-yl)methanol], the Ki on JAK3 is 0.794 nM. Besides, the “inhibition of IL-31-induced pSTAT3 production” value in data set [1] is given as 80%. The “permeability in human skin assay (in words)” value in data set [2] is reported as “good permeability”; in data set [2] (listed as compound (I)), “adequate permeability”. For the same compound, the “MedFlux Permeability, flux permeating through 1 cm2 of human skin (Mean)” value in data set [2] (n=5, receiver fluid PBS with 0.1% Brij) was 39.1 ng/cm2/sec.
